Measured values taken from patent US20150175599A1, “FAAH Inhibitors” (Ironwood Pharmaceuticals, Inc., priority 2010, published 2015).
pIC50: −log10 of the molar value.

Target: T1, human FAAH-1 (Homo sapiens, UniProt O00519)
T1 sequence (O00519 1-579): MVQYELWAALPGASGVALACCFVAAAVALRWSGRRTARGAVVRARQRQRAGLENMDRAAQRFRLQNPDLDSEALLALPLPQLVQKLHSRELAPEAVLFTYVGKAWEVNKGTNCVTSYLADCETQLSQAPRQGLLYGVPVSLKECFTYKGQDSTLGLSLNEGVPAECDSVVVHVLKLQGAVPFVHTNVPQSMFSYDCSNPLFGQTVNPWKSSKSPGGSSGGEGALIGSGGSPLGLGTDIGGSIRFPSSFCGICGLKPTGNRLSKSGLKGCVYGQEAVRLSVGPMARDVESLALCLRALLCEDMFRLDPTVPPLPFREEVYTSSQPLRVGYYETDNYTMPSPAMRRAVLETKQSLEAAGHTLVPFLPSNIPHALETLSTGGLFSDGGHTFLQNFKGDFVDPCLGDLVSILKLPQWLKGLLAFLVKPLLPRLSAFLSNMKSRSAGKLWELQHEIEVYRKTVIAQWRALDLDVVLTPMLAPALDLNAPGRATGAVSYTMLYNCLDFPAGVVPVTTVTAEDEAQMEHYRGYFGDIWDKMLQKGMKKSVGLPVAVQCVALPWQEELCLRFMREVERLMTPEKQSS
Experiment: Whole cell anandamide hydrolysis assay (HeLa clone 5c5 transfected with human FAAH-1)
Type: cell-based
Details: HeLa clone 5c5 expressing human FAAH-1; read-out: human FAAH whole cell IC50
Description: FAAH activity was assayed in whole cells using methods disclosed previously (Maccarone et al., 1998 J Biol. Chem. 273:32332 and Bisogno et al., 1997 J Biol. Chem. 272:3315). In addition to the cell lines described in Maccarone et al. and Bisogno et al., MCF7 (ATCC designation HTB-22) and T84 (ATCC designation CCL-248) cell lines were also used in these assays.
cDNA expression clone for human FAAH-1 (in pcDNA3 vector) (Genbank Accession U82535; obtained from Benjamin Cravatt, Scripps Research Institute, La Jolla, Calif.) was linearized by digestion with BglII (New England Biolabs) and transfected by calcium phosphate into human HeLa cells (ATCC catalog #CCL-2). […] Following transfection, a stable HeLa-derived clone, designated 5c5, was isolated by single colony purification and expanded and maintained in modified Eagles medium (MEM; VWR catalog #45000-300) containing 10% fetal bovine serum (FBS), 2 mM L-glutamine, and 0.5 mg/mL G-418 (Sigma catalog #G5013).
Clone 5c5 (50,000 cells in 150 μL) was seeded into 96-well plates and incubated overnight (5% CO2, 37° C.). Media was carefully replaced with 180 μL DMEM/F12 medium (VWR catalog #45000-350) containing 15 mM HEPES, pH 7.4 and 0.1% fatty acid free BSA (Sigma catalog #A0281). Then, 2 μL of 100× desired final concentrations of certain exemplary compounds described herein were made up in DMSO, added to wells containing cells, and plates were incubated at 37° C. for 10 min. Next, 20 μL of 5 μM anandamide (Cayman catalog #90050) spiked with 8 μCi of anandamide-(ethanolamine-1-[^3H]) (American Radiolabeled Chemicals, Inc., catalog #ART 626) was added to the cells and the plates were incubated for an additional 15 min at 37° C. The reactions were terminated by chilling the plates on ice and adding 20 μL of 0.5M of potassium phosphate buffer (adjusted to pH 2.1 with phosphoric acid).
The acidified reactions were transferred to 96-well filter plates (0.25 mL capacity/well, 1.2 micron glass fiber pre-filter packed above 0.65 micron pore-size PVDF membrane, Millipore catalog MSFCN6B50) containing 25 μL charcoal (neutral activated carbon, Fisher Scientific catalog C170-500) per well. Prior to the assay, charcoal was measured and loaded onto the plate using an aluminum 96-well column loading device (Millipore catalog MACL09625). The filter plate was assembled over an empty 96-well plate (Costar) using a centrifuge alignment frame (Millipore catalog MACF09604) to allow for collection of the filtrate in the receiver plate. The charcoal glass-fiber filter plates were pre-washed with methanol by centrifugation 650×g for 10 min). Next, 80 μL of water was added to the wells of the pre-washed 96 well charcoal filter plate. Then, 90 μL of the acidified reaction mixture was added to the water in the wells of the charcoal plate. The samples were centrifuged as above. The substrate remained bound to the charcoal, whereas the [^3H]-ethanolamine product formed flowed through and was transferred to the microplates containing scintillation cocktail and quantified in a micro-plate scintillation counter (Perkin-Elmer Microbeta). Control reactions with either no cells or cells treated with DMSO alone were performed in triplicate and used to define background (no cells) and 100% activity (DMSO alone).
Following subtraction of background radioactivity, data were expressed as percent inhibition relative to 100% activity and fit with a nonlinear regression curve using GraphPad Prism Software (GraphPad Software Inc). IC50 values were calculated from the resulting dose-response curves constrained at top and bottom to 100% and 0%, respectively.

SMILES	pIC50
C=Cc1ccc2c(c1)c(C(=O)C(=O)Nc1ccnc(OC)c1)c(C)n2Cc1ccc(Cl)cc1 [Compound 27, 2-(1-(4-chlorobenzyl)-2-methyl-5-vinyl-1H-indol-3-yl)-N-(2-methoxypyridin-4-yl)-2-oxoacetamide]	> 7.00
COc1ccc2c(c1)c(C(=O)C(=O)Nc1ccnc(OC)c1)c(C)n2Cc1ccc(S(C)(=O)=O)cc1 [Compound 39, 2-(5-methoxy-2-methyl-1-(4-(methylsulfonyl)benzyl)-1H-indol-3-yl)-N-(2-methoxypyridin-4-yl)-2-oxoacetamide]	5.00 to 6.00
CNCc1ccc2c(c1)c(C(=O)C(=O)Nc1ccnc(OC)c1)c(C)n2Cc1ccc(Cl)cc1 [Compound 25, 2-(1-(4-chlorobenzyl)-2-methyl-5-((methylamino)methyl)-1H-indol-3-yl)-N-(2-methoxypyridin-4-yl)-2-oxoacetamide]	6.00 to 7.00
COc1cc(NC(=O)C(=O)c2c(C)n(Cc3ccc(Cl)cc3)c3cnccc23)ccn1 [Compound 35, 2-(1-(4-chlorobenzyl)-2-methyl-1H-pyrrolo[2,3-c]pyridin-3-yl)-N-(2-methoxypyridin-4-yl)-2-oxoacetamide]	> 7.00
COc1cc(NC(=O)C(=O)c2c(C)n(Cc3ccc(Cl)cc3)c3c(OC)cccc23)ccn1 [Compound 51, 2-(1-(4-chlorobenzyl)-7-methoxy-2-methyl-1H-indol-3-yl)-N-(2-methoxypyridin-4-yl)-2-oxoacetamide]	6.00 to 7.00
COc1ccc(Cn2c(C)c(C(=O)C(=O)Nc3ccnc(OC)c3)c3cc(OC)cnc32)nc1 [Compound 40, 2-(5-methoxy-1-((5-methoxypyridin-2-yl)methyl)-2-methyl-1H-pyrrolo[2,3-b]pyridin-3-yl)-N-(2-methoxypyridin-4-yl)-2-oxoacetamide]	> 7.00
COc1cc(NC(=O)C(=O)c2c(C)n(Cc3ccc(Cl)cc3)c3ccc(OC)c(OC)c23)ccn1 [Compound 56, 2-(1-(4-chlorobenzyl)-4,5-dimethoxy-2-methyl-1H-indol-3-yl)-N-(2-methoxypyridin-4-yl)-2-oxoacetamide]	6.00 to 7.00
COc1ccc2c(c1)c(C(=O)C(=O)Nc1ccnc(O)c1)c(C)n2Cc1ccc(Cl)cc1 [Compound 50, 2-(1-(4-chlorobenzyl)-5-methoxy-2-methyl-1H-indol-3-yl)-N-(2-hydroxypyridin-4-yl)-2-oxoacetamide]	5.00 to 6.00
COc1cc(NC(=O)C(=O)c2c(C)n(Cc3ccc(Cl)cc3)c3ccc(CN(C)C)cc23)ccn1 [Compound 26, 2-(1-(4-chlorobenzyl)-5-((dimethylamino)methyl)-2-methyl-1H-indol-3-yl)-N-(2-methoxypyridin-4-yl)-2-oxoacetamide]	> 7.00
COc1cc(NC(=O)C(=O)c2c(C)n(Cc3ccc(Cl)cc3)c3ccc(C(=O)N(C)C)cc23)ccn1 [Compound 6, 1-(4-chlorobenzyl)-3-(2-(2-methoxypyridin-4-ylamino)-2-oxoacetyl)-N,N,2-trimethyl-1H-indole-5-carboxamide]	6.00 to 7.00
COc1cc(NC(=O)C(=O)c2c(C)n(Cc3ccc(Cl)cn3)c3ccc([N+](=O)[O-])cc23)ccn1 [Compound 62, 2-(1-((5-chloropyridin-2-yl)methyl)-2-methyl-5-nitro-1H-indol-3-yl)-N-(2-methoxypyridin-4-yl)-2-oxoacetamide]	> 7.00
COc1ccc2c(c1)c(C(=O)C(=O)Nc1ccnc(OC)c1)c(C)n2Cc1ncc(Cl)cc1OC [Compound 100, 2-(1-((5-chloro-3-methoxypyridin-2-yl)methyl)-5-methoxy-2-methyl-1H-indol-3-yl)-N-(2-methoxypyridin-4-yl)-2-oxoacetamide]	> 7.00
COc1cc(NC(=O)C(=O)c2c(C)n(Cc3ccc(Cl)cn3)c3ccc(N)cc23)ccn1 [Compound 65, 2-(5-amino-1-((5-chloropyridin-2-yl)methyl)-2-methyl-1H-indol-3-yl)-N-(2-methoxypyridin-4-yl)-2-oxoacetamide]	> 7.00
COc1cc(NC(=O)C(=O)c2c(C)n(Cc3ccc(Cl)cn3)c3cc(C)c(OC)cc23)ccn1 [Compound 95, 2-(1-((5-chloropyridin-2-yl)methyl)-5-methoxy-2,6-dimethyl-1H-indol-3-yl)-N-(2-methoxypyridin-4-yl)-2-oxoacetamide]	> 7.00
COc1cc(NC(=O)C(=O)c2c(C)n(Cc3ccc(Cl)cc3)c3ccc(OC)c(Cl)c23)ccn1 [Compound 58, 2-(4-chloro-1-(4-chlorobenzyl)-5-methoxy-2-methyl-1H-indol-3-yl)-N-(2-methoxypyridin-4-yl)-2-oxoacetamide]	> 7.00
COc1ccc2c(c1)c(C(=O)C(=O)Nc1ccnc(OC)c1Cl)c(C)n2Cc1ccc(Cl)cc1 [Compound 52, N-(3-chloro-2-methoxypyridin-4-yl)-2-(1-(4-chlorobenzyl)-5-methoxy-2-methyl-1H-indol-3-yl)-2-oxoacetamide]	6.00 to 7.00
COc1ccc2c(c1)c(C(=O)C(=O)Nc1ccnc(OC)c1)c(C)n2Cc1ccncc1 [Compound 16, 2-(5-methoxy-2-methyl-1-(pyridin-4-ylmethyl)-1H-indol-3-yl)-N-(2-methoxypyridin-4-yl)-2-oxoacetamide]	> 7.00
COc1cc(NC(=O)C(=O)c2c(C)n(Cc3ccc(Cl)cc3)c3ccc(N)c(Cl)c23)ccn1 [Compound 73, 2-(5-amino-4-chloro-1-(4-chlorobenzyl)-2-methyl-1H-indol-3-yl)-N-(2-methoxypyridin-4-yl)-2-oxoacetamide]	> 7.00
CCN(CC)c1ccc2c(c1)c(C(=O)C(=O)Nc1ccnc(OC)c1)c(C)n2Cc1ccc(Cl)cc1 [Compound 24, 2-(1-(4-chlorobenzyl)-5-(diethylamino)-2-methyl-1H-indol-3-yl)-N-(2-methoxypyridin-4-yl)-2-oxoacetamide]	6.00 to 7.00
COc1ccc2c(c1)c(C(=O)C(=O)Nc1ccnc(OC)c1F)c(C)n2Cc1ccc(Cl)cc1 [Compound 53, 2-(1-(4-chlorobenzyl)-5-methoxy-2-methyl-1H-indol-3-yl)-N-(3-fluoro-2-methoxypyridin-4-yl)-2-oxoacetamide]	> 7.00
COc1cc(NC(=O)C(=O)c2c(C)n(Cc3ccc(Cl)cc3)c3ccc(N(C)C(=O)OC(C)(C)C)cc23)ccn1 [Compound 7, Tert-butyl(1-(4-chlorobenzyl)-3-(2-((2-methoxypyridin-4-yl)amino)-2-oxoacetyl)-2-methyl-1H-indol-5-yl)(methyl)carbamate]	6.00 to 7.00
